Reference: ChEMBL document CHEMBL1201862, “PubChem BioAssay data set” (2004)
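Cultured in 96-well plates, cells were exposed to test compound for 48 hours across five concentrations. Abbreviation: GI50, concentration required for 50% inhibition of growth.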 The source made the active and inactive calls. Rule as the data show it: active = GI50 up to about 1.1 µM and inactive = higher. Peptide text beside a SMILES is read from it. * marks the point of attachment. OSu = O=C1CCC(=O)N1O*

Assays:
Test in all cases: NCI anticancer screen, dose series, 48 h
TK-10 = test system: TK-10
T47D = test system: T47D
UACC-62 = test system: UACC-62
EKVX = test system: EKVX
M14 = test system: M14
SNB-19 = test system: SNB-19
MCF7 = test system: MCF7
MOLT-4 = test system: MOLT-4
OVCAR-5 = test system: OVCAR-5
HT-29 = test system: HT-29
SNB-75 = test system: SNB-75
CCRF-CEM = test system: CCRF-CEM
RXF 393 = test system: RXF 393
HCT-15 = test system: HCT-15
SK-MEL-28 = test system: SK-MEL-28
Hs-578T = test system: Hs-578T
MDA-MB-435 = test system: MDA-MB-435
A549 = test system: A549
SR = test system: SR
K562 = test system: K562

| SMILES | GI50 (TK-10) | GI50 (T47D) | GI50 (UACC-62) | GI50 (EKVX) | GI50 (M14) | GI50 (SNB-19) | GI50 (MCF7) | GI50 (MOLT-4) | GI50 (OVCAR-5) | GI50 (HT-29) | GI50 (SNB-75) | GI50 (CCRF-CEM) | GI50 (RXF 393) | GI50 (HCT-15) [µM] | GI50 (SK-MEL-28) | GI50 (Hs-578T) | GI50 (MDA-MB-435) | GI50 (A549) | GI50 (SR) | GI50 (K562) |
| --- | --- | --- | --- | --- | --- | --- | --- | --- | --- | --- | --- | --- | --- | --- | --- | --- | --- | --- | --- | --- |
| CC1(CC(=O)OC(C#C[Si](C)(C)C)Cc2ccccc2)OCCO1 (centres undefined) | > 100 µM (inactive) | > 100 µM (inactive) | > 100 µM (inactive) | > 100 µM (inactive) | > 100 µM (inactive) | > 100 µM (inactive) | > 100 µM (inactive) | > 100 µM (inactive) | > 100 µM (inactive) | > 100 µM (inactive) | > 100 µM (inactive) | > 100 µM (inactive) | > 100 µM (inactive) | > 100 | > 100 µM (inactive) | > 100 µM (inactive) | > 100 µM (inactive) | > 100 µM (inactive) | – | – |
| O=[N+]([O-])c1ccc(NN=C2CN3CCN(C2)c2ccccc23)c([N+](=O)[O-])c1 | > 100 µM (inactive) | > 100 µM (inactive) | > 100 µM (inactive) | 40.6 µM (inactive) | > 100 µM (inactive) | > 100 µM (inactive) | > 100 µM (inactive) | > 100 µM (inactive) | > 100 µM (inactive) | > 100 µM (inactive) | – | > 100 µM (inactive) | – | > 100 | > 100 µM (inactive) | > 100 µM (inactive) | > 100 µM (inactive) | > 100 µM (inactive) | > 100 µM (inactive) | > 100 µM (inactive) |
| O=C1c2ccccc2C(=O)c2sc(Nc3ccc(Cl)c(Cl)c3)nc21 | 11.1 µM (inactive) | 4.03 µM (inactive) | 2.59 µM (inactive) | 14.3 µM (inactive) | 3.22 µM (inactive) | 6.04 µM (inactive) | – | 1.02 µM (active) | 2.9 µM (inactive) | 19.7 µM (inactive) | 8.05 µM (inactive) | 1.85 µM (inactive) | 7.4 µM (inactive) | 2.26 | 7.35 µM (inactive) | 6.92 µM (inactive) | – | 23.5 µM (inactive) | 2.52 µM (inactive) | 3.21 µM (inactive) |
| N=C(N)SCc1ccc(N=C=S)cc1 | 14.5 µM (inactive) | 13.6 µM (inactive) | 11.4 µM (inactive) | 15.9 µM (inactive) | – | 13.8 µM (inactive) | – | > 100 µM (inactive) | 14.4 µM (inactive) | 15.1 µM (inactive) | 10.2 µM (inactive) | 6.93 µM (inactive) | 3.56 µM (inactive) | 11.3 | 14.6 µM (inactive) | 12.6 µM (inactive) | 13.1 µM (inactive) | 16.3 µM (inactive) | 17.6 µM (inactive) | 11.7 µM (inactive) |
| N#C/C(N)=C(C#N)/N=C/NCCO | > 100 µM (inactive) | > 100 µM (inactive) | > 100 µM (inactive) | > 100 µM (inactive) | > 100 µM (inactive) | > 100 µM (inactive) | > 100 µM (inactive) | > 100 µM (inactive) | > 100 µM (inactive) | > 100 µM (inactive) | > 100 µM (inactive) | > 100 µM (inactive) | – | > 100 | > 100 µM (inactive) | > 100 µM (inactive) | > 100 µM (inactive) | > 100 µM (inactive) | > 100 µM (inactive) | > 100 µM (inactive) |
| C=C1C(=O)O[C@H]2[C@H]([C@H](C)CCCC(C)=O)O[C@H]([C@@]3(C)CCC(=O)O3)C[C@@H]12 | 17.7 µM (inactive) | 76 µM (inactive) | 66.5 µM (inactive) | 79.3 µM (inactive) | 33.9 µM (inactive) | > 100 µM (inactive) | – | 78.7 µM (inactive) | > 100 µM (inactive) | 90.2 µM (inactive) | > 100 µM (inactive) | 26.9 µM (inactive) | – | 42 | > 100 µM (inactive) | 29.2 µM (inactive) | 38.5 µM (inactive) | > 100 µM (inactive) | 55.6 µM (inactive) | 61.4 µM (inactive) |
| O=[N+]([O-])c1ccc(-c2csc3nc(-c4ccccc4)nn23)cc1 | > 100 µM (inactive) | – | > 100 µM (inactive) | > 100 µM (inactive) | > 100 µM (inactive) | > 100 µM (inactive) | > 100 µM (inactive) | > 100 µM (inactive) | > 100 µM (inactive) | > 100 µM (inactive) | 94.6 µM (inactive) | > 100 µM (inactive) | 40.8 µM (inactive) | > 100 | > 100 µM (inactive) | > 100 µM (inactive) | > 100 µM (inactive) | > 100 µM (inactive) | > 100 µM (inactive) | > 100 µM (inactive) |
| CCCCSC1=N/C(=C\c2ccc(N(C)C)cc2)C(Cl)=N1 | > 100 µM (inactive) | > 100 µM (inactive) | 94.4 µM (inactive) | 89.5 µM (inactive) | > 100 µM (inactive) | > 100 µM (inactive) | > 100 µM (inactive) | > 100 µM (inactive) | > 100 µM (inactive) | > 100 µM (inactive) | > 100 µM (inactive) | – | > 100 µM (inactive) | > 100 | > 100 µM (inactive) | > 100 µM (inactive) | > 100 µM (inactive) | > 100 µM (inactive) | – | > 100 µM (inactive) |
| OCC1C(O)C(O)[C@@H]2SCCN12 (some centres undefined) | > 100 µM (inactive) | > 100 µM (inactive) | > 100 µM (inactive) | > 100 µM (inactive) | > 100 µM (inactive) | > 100 µM (inactive) | – | > 100 µM (inactive) | > 100 µM (inactive) | > 100 µM (inactive) | > 100 µM (inactive) | > 100 µM (inactive) | > 100 µM (inactive) | > 100 | > 100 µM (inactive) | > 100 µM (inactive) | > 100 µM (inactive) | > 100 µM (inactive) | > 100 µM (inactive) | > 100 µM (inactive) |
| Cc1ccc(/N=C2\SC(=NN(C)C)S\C2=N/c2ccc(C)cc2)cc1 | > 100 µM (inactive) | > 100 µM (inactive) | > 100 µM (inactive) | > 100 µM (inactive) | – | > 100 µM (inactive) | – | > 100 µM (inactive) | > 100 µM (inactive) | > 100 µM (inactive) | > 100 µM (inactive) | > 100 µM (inactive) | > 100 µM (inactive) | > 100 | > 100 µM (inactive) | > 100 µM (inactive) | > 100 µM (inactive) | > 100 µM (inactive) | > 100 µM (inactive) | > 100 µM (inactive) |
| CCCOC(=O)NC(C)C(=O)NC(CCC(=O)NC(CCCC(N)C(=O)O)C(=O)NC(C)C(=O)O)C(=O)O (centres undefined) | 69.8 µM (inactive) | 18.3 µM (inactive) | 18.6 µM (inactive) | 49.3 µM (inactive) | 18.3 µM (inactive) | 27.7 µM (inactive) | 39.2 µM (inactive) | 23 µM (inactive) | 41.9 µM (inactive) | 19.5 µM (inactive) | – | 19.2 µM (inactive) | – | 18.1 | 19.4 µM (inactive) | 15.7 µM (inactive) | 56.8 µM (inactive) | 74.6 µM (inactive) | 15.6 µM (inactive) | – |
| NS(=O)(=O)c1ccc(N2C(=O)C(=O)N(c3ccccc3)C2=S)cc1 | > 100 µM (inactive) | 55.1 µM (inactive) | > 100 µM (inactive) | 93.8 µM (inactive) | – | > 100 µM (inactive) | – | > 100 µM (inactive) | > 100 µM (inactive) | > 100 µM (inactive) | 74.3 µM (inactive) | > 100 µM (inactive) | 75.7 µM (inactive) | 60.3 | > 100 µM (inactive) | > 100 µM (inactive) | > 100 µM (inactive) | > 100 µM (inactive) | 18.9 µM (inactive) | > 100 µM (inactive) |
| O=S(=O)(CCn1c(Sc2ccccc2)c(Sc2ccccc2)c2ccccc21)c1ccccc1 | > 100 µM (inactive) | > 100 µM (inactive) | > 100 µM (inactive) | > 100 µM (inactive) | > 100 µM (inactive) | > 100 µM (inactive) | > 100 µM (inactive) | > 100 µM (inactive) | > 100 µM (inactive) | > 100 µM (inactive) | > 100 µM (inactive) | > 100 µM (inactive) | – | > 100 | > 100 µM (inactive) | 40.5 µM (inactive) | > 100 µM (inactive) | > 100 µM (inactive) | > 100 µM (inactive) | > 100 µM (inactive) |
| CC1(C)CCC[C@](C)([C@H]2CC[C@]3(C)[C@@H]2[C@H](O)C[C@@H]2[C@@]4(C)CC[C@H](O)C(C)(C)[C@@H]4[C@H](O)C[C@]23C)O1 | 11.3 µM (inactive) | 10.6 µM (inactive) | 13.3 µM (inactive) | 13.6 µM (inactive) | 14.9 µM (inactive) | 11.5 µM (inactive) | 9.73 µM (inactive) | 3.78 µM (inactive) | 20.1 µM (inactive) | 3.55 µM (inactive) | 10.7 µM (inactive) | 3.09 µM (inactive) | – | 11.6 | 11.9 µM (inactive) | 12.9 µM (inactive) | 12.2 µM (inactive) | 9.68 µM (inactive) | 5.31 µM (inactive) | 5.48 µM (inactive) |
| NCCCCC(NC(=O)C(N)Cc1ccc(O)cc1)C(=O)NC(Cc1ccc(O)cc1)C(=O)NC(CCCCN)C(=O)ON1C(=O)CCC1=O (centres undefined) (H-YKYK-OSu; configuration not given here) | > 100 µM (inactive) | > 100 µM (inactive) | > 100 µM (inactive) | > 100 µM (inactive) | > 100 µM (inactive) | > 100 µM (inactive) | > 100 µM (inactive) | > 100 µM (inactive) | > 100 µM (inactive) | > 100 µM (inactive) | > 100 µM (inactive) | – | > 100 µM (inactive) | > 100 | > 100 µM (inactive) | > 100 µM (inactive) | – | > 100 µM (inactive) | > 100 µM (inactive) | > 100 µM (inactive) |
